Assay results from publication PMC3816671, “Cell Penetrating Peptoids (CPPos): Synthesis of a Small Combinatorial Library by Using IRORI MiniKans” (Pharmaceuticals, 2012).

How the values were obtained:
[1] = system: HeLa cells; assay: Cellular uptake and intracellular distribution of rhodamine B-labeled peptoids by live-cell confocal imaging; type: cell-based, human; conditions: 1 × 10^4 HeLa wt cells, 1 µM peptoid, 24 h, 37 °C, confocal fluorescence imaging, co-staining Hoechst 33342 and Mitotracker Green
Description: All procedures with mammalian cells were carried out under sterile conditions. 1 × 10^4 HeLa (human cervix carcinoma) cells were plated into each well of a 8-well µslide from IBIDI (Ibitreat, Martinsried, Germany) and cultured in 200 µL Dulbecco’s modified Eagle’s medium, high glucose, (DMEM, Invitrogen, Karlsruhe, Germany) supplemented with 10% fetal calf serum (FCS, PAA) and1 U/mL penicillin/streptomycin at 37 °C, 5% CO2.
The purified peptoids were dissolved in bidistilled water to yield a 2 mM stock solution and were further diluted with 10% DMEM to yield the respective incubation media. The cells were cultured as described above were incubated with the different peptoids at final concentrations of 1–10 µM. Cellular uptake of the peptoids was measured by live-cell imaging after 1 and 24 h as fixation would alter the intracellular distribution as described for other polycationic species.
Visualization of the peptoids was achieved by confocal microscopy using a Leica TCS-SP5 II, equipped with a DMI6000 microscope. The peptoids were excited at 561 nm using a DPSS laser. […] Fluorescence emission was measured at 417–468 nm for the detection of the nuclei, at 499–552 nm for the detection of the mitochondria, and 593–696 nm for the detection of the rhodamine B labeled peptoids. […]

[2] = system: mitochondria of HeLa cells; assay: Co-localization with the mitochondrial marker Mitotracker Green (Pearson's correlation of fluorescence profiles); type: cell-based, human; conditions: live-cell confocal fluorescence imaging, co-staining with 100 nM Mitotracker Green, 37 °C
Description: HeLa cells were treated with 1 and 10 µM of the corresponding peptoids for 1 and 24 h. […] However, for the better visualization of the organellar accumulation the incubation period was prolonged to 24 h. Co-localization experiments were performed by co-staining of the mitochondria with the mitochondrial marker Mitotracker Green^TM (Figure 5 and Figure 6).
By colocalizing the peptides with the mitochondrial marker Mitotracker Green^TM Pearson’s correlation coefficients (Rr) of the corresponding fluorescence profiles could be calculated reflecting mitochondrial specificity.
All procedures with mammalian cells were carried out under sterile conditions. […]
The purified peptoids were dissolved in bidistilled water to yield a 2 mM stock solution and were further diluted with 10% DMEM to yield the respective incubation media. […] Cellular uptake of the peptoids was measured by live-cell imaging after 1 and 24 h as fixation would alter the intracellular distribution as described for other polycationic species.
Visualization of the peptoids was achieved by confocal microscopy using a Leica TCS-SP5 II, equipped with a DMI6000 microscope. […] Fluorescence emission was measured at 417–468 nm for the detection of the nuclei, at 499–552 nm for the detection of the mitochondria, and 593–696 nm for the detection of the rhodamine B labeled peptoids. […]

Substance: RhoB-Npmb-Nlys3-NH2 [compound 11]
- Intracellular localization [1]: mitochondrial localization
- Pearson's correlation coefficient (Rr) of the fluorescence profiles of peptoid and Mitotracker Green, reflecting mitochondrial specificity [2]: +0.68
